# Measured values reported in patent US20230138414A1, “METHODS AND COMPOSITIONS FOR PREVENTING AND TREATING MYOPIA” (The Trustees of Columbia University in the City of New York, priority 2020, published 2023).
# Counter-ions that a name gives are not always drawn. Like-named read-outs stand apart in the source and are kept apart here.
# Legend:
# [1] = test system: progression of myopia in children; conditions: daily oral 400 mg (∼15 mg/kg), cited from earlier work
# [2] = test system: myopia; conditions: monkeys; effect strongly depended on the genetic background; cited from earlier work
# [3] = test system: myopia; conditions: 300 mg/kg dose, guinea pigs; cited from earlier work
# [4] = test system: sclera; conditions: rabbit, in vivo; cited from earlier work
# [5] = test system: induced myopia; conditions: 30 mg/kg dose, rabbits; cited from earlier work
# [6] = test system: progression of myopia; conditions: cited from earlier work
# [7] = test system: progression of myopia; conditions: 1-year period, cited from earlier work
# [8] = test system: development of ocular components and emmetropization; conditions: juvenile primates; cited from earlier work
# [9] = test system: progression of myopia in children; conditions: cited from earlier work
# [10] = test system: myopia development; conditions: chickens and guinea pigs; cited from earlier work
# [11] = test system: mice with experimentally induced myopia; assay: Lens-induced myopia (-25 D lens over right eye, 3 weeks), drug in diet; format: in vivo, C57BL/6J (B6) mice; conditions: for interocular difference in refractive error between lens-treated eyes and control eyes: after 3 weeks of lens treatment, control group -10.47 ± 3.02 D; for inhibition (suppression) of myopia: systemic oral administration, 3 weeks, -25 D lens, B6 mice
# Excerpt: Myopia was induced in 24-days old C57BL/6J (B6) mice by attaching -25 diopter (D) lens placed in a plastic 3D-printed frame over right eye. The contralateral eye served as control. Mice were raised with lenses for 3 weeks (FIG. 1A). After 3 weeks, the lenses were removed and refractive errors in the lens-treated eyes and contralateral control eyes were compared. Lens-treatment produced myopia in the lens-treated eyes (average refractive error = -14.6 ± 0.3 D) relative to the control eyes (average refractive error = +0.6 ± 0.6 D) (FIG. 1B); the interocular difference in refractive error (-15.2 ± 0.7 D) was highly significant (P < 0.0001). […] The diameter of lens-treated eyes was on average 65 ± 8 µm larger (P < 0.0001; FIG. 1C), and the vitreous chamber depth in the lens-treated eyes was 61 ± 4 µm longer (P < 0.0001; FIG. 1C), than that of the control fellow eyes.
# The experimental group of B6 mice was raised with -25 D lenses over right eye (as described in Example 1) on a diet supplemented with 5 mg/kg of levocabastine hydrochloride for 3 weeks, while the control group of B6 mice with -25 D lenses over right eye was raised on a regular non-medicated diet. The interocular difference in refractive error between lens-treated eyes and control eyes in the levocabastine-treated animals after 3 weeks of lens treatment was +0.55 ± 2.32 D versus -10.47 ± 3.02 D in the control group, P-value = 2.83 × 10^-10.
# The experimental group of B6 mice was raised with -25 D lenses over right eye on a diet supplemented with 1 mg/kg of fenoterol hydrobromide for 3 weeks, while the control group of B6 mice with -25 D lenses over right eye was raised on a regular non-medicated diet. The interocular difference in refractive error between lens-treated eyes and control eyes in the fenoterol-treated animals after 3 weeks of lens treatment was -0.8 ± 1.80 D versus -10.47 ± 3.02 D in the control group, P = 2.47 × 10^-08.
# The experimental group of B6 mice was raised with -25 D lenses over right eye on a diet supplemented with 1 mg/kg of trichostatin A for 3 weeks, while the control group of B6 mice with -25 D lenses over right eye was raised on a regular non-medicated diet. The interocular difference in refractive error between lens-treated eyes and control eyes in the trichostatin-A-treated animals after 3 weeks of lens treatment was 0.48 ± 1.46 D versus -10.47 ± 3.02 D in the control group, P = 4.43 × 10^-10.
# The experimental group of B6 mice was raised with -25 D lenses over right eye on a diet supplemented with 0.3 mg/kg of fingolimod phosphate for 3 weeks, while the control group of B6 mice with -25 D lenses over right eye was raised on a regular non-medicated diet. The interocular difference in refractive error between lens-treated eyes and control eyes in the fingolimod-treated animals after 3 weeks of lens treatment was -0.02 ± 1.58 D versus -10.47 ± 3.02 D in the control group, P = 4.63 × 10^-9.
# The experimental group of B6 mice was raised with -25 D lenses over right eye on a diet supplemented with 20 mg/kg of berberine chloride for 3 weeks, while the control group of B6 mice with -25 D lenses over right eye was raised on a regular non-medicated diet. The interocular difference in refractive error between lens-treated eyes and control eyes in the berberine-treated animals after 3 weeks of lens treatment was -5.15 ± 1.22 D versus -10.47 ± 3.02 D in the control group, P = 1.31 × 10^-4.
# The experimental group of B6 mice was raised with -25 D lenses over right eye on a diet supplemented with 10 mg/kg of S-methyl-L-thiocitrulline hydrochloride for 3 weeks, while the control group of B6 mice with -25 D lenses over right eye was raised on a regular non-medicated diet. The interocular difference in refractive error between lens-treated eyes and control eyes in the S-methyl-L-thiocitrulline-treated animals after 3 weeks of lens treatment was -0.28 ± 2.17 D versus -10.47 ± 3.02 D in the control group, P = 6.73 × 10^-9.
# [12] = test system: progression of myopia; conditions: guinea pigs; cited from earlier work
# [13] = test system: experimentally induced myopia; conditions: chickens; cited from earlier work
# [14] = test system: myopia; conditions: guinea pigs; cited from earlier work
# [15] = test system: mouse model of myopia; conditions: cited from earlier work
# [16] = test system: myopia development; conditions: chicken, mouse and non-human primates; cited from earlier work
# [17] = test system: experimental myopia; conditions: tree shrews, rhesus monkeys, and chickens; cited from earlier work
# [18] = test system: progression of myopia in children; conditions: cited from earlier work; remark: listed apart in the source
smiles,measurement,setting,value
"Cn1cnc2[nH]c(=O)[nH]c(=O)c21 [7-MX, 7-methylxanthine]",effect on myopia progression,[1]; subjects with high rates of progression,no effect
same,suppression of myopia,[1]; subjects with slow progressing myopia,approximately 22%
same,suppression of myopia,[2],can suppress myopia in primates
same,suppression of myopia,[3],49%
same,changes in the sclera,[4],thickening of the sclera and an increase in the diameter of the scleral collagen fibrils
same,reduction of the extent of induced myopia,[5],approximately 67%
CN1[C@@H]2CC[C@H]1C[C@@H](OC(=O)C(CO)c1ccccc1)C2 (stereo partly shown) [atropine],retardation of the progression of myopia,"[6]; 1% atropine eye drops, 2-year treatment period",approximately 76%
same,side effects,[6]; 1% atropine,"photophobia, reduced accommodation amplitude, and blurred vision"
same,retardation of progression of myopia,[7]; 0.01% atropine,27%
same,retardation of progression of myopia,[7]; 0.025% atropine,43%
same,retardation of progression of myopia,[7]; 0.05% atropine,67%
same,long-term effects on development of ocular components and emmetropization,[8],long-term adverse effects
same,long-term suppression effect,"[9]; 0.01% atropine, 5-year follow up study",approximately 30%
same,drop of the progression rate after cessation of treatment,"[9]; 0.01% atropine, after cessation of treatment",approximately 30%
same,retardation of the progression of myopia,"[9]; 0.01% atropine, children",59%
same,retardation of the progression of myopia,"[9]; 0.1% atropine, children",68%
same,suppression of the progression of myopia,"[9]; 0.5% atropine, children",75%
NCCCP(=O)(O)CC1CCCCC1 [CGP46381],suppression of myopia development,[10],suppress myopia development
"CP(=O)(O)C1=CCNCC1 [TPMPA, (1,2,5,6-tetrahydropyridin-4yl) methylphosphinic acid]",suppression of myopia development,[10],suppress myopia development
COc1ccc2cc3[n+](cc2c1OC)CCc1cc2c(cc1-3)OCO2 [berberine chloride],interocular difference in refractive error between lens-treated eyes and control eyes,[11]; diet supplemented with 20 mg/kg,-5.15 ± 1.22 D
same,inhibition (suppression) of myopia,[11]; 20 mg/kg in diet,approximately 50%
[H]/N=C(\NCCC[C@H](N)C(=O)O)SC [S-methyl-L-thiocitrulline hydrochloride],interocular difference in refractive error between lens-treated eyes and control eyes,[11]; diet supplemented with 10 mg/kg,-0.28 ± 2.17 D
same,inhibition (suppression) of myopia,[11]; 10 mg/kg in diet,approximately 97%
CC(C)OC(=O)CCC/C=C\C[C@@H]1[C@@H](CC[C@@H](O)CCc2ccccc2)[C@H](O)C[C@@H]1O [latanoprost],reduction of progression of myopia,[12],reduce progression of myopia
"CCCCCCCCc1ccc(CCC(N)(CO)COP(=O)(O)O)cc1 (stereo not shown) [fingolimod phosphate, fingolimod (FTY720) phosphate]",interocular difference in refractive error between lens-treated eyes and control eyes,[11]; diet supplemented with 0.3 mg/kg,-0.02 ± 1.58 D
N=C(N)NC(=O)Cc1c(Cl)cccc1Cl [guanfacine],inhibition of experimentally induced myopia,[13],inhibit experimentally induced myopia
CC(Cc1ccc(O)cc1)NCC(O)c1cc(O)cc(O)c1 (stereo not shown) [fenoterol hydrobromide],interocular difference in refractive error between lens-treated eyes and control eyes,[11]; diet supplemented with 1 mg/kg,-0.8 ± 1.80 D
C[C@@H]1CN([C@H]2CC[C@](C#N)(c3ccc(F)cc3)CC2)CC[C@]1(C(=O)O)c1ccccc1 [levocabastine hydrochloride],interocular difference in refractive error between lens-treated eyes and control eyes,[11]; diet supplemented with 5 mg/kg,+0.55 ± 2.32 D
Brc1c(NC2=NCCN2)ccc2nccnc12 [brimonidine],suppression of myopia,[14],suppressed myopia
same,inhibition of experimentally induced myopia,[13],suppressed myopia
CC(/C=C/C=C(\C)C(=O)O)=C\C=C\C=C(C)\C=C\C=C(/C)C(=O)O [crocetin],outcome of drug screen,[15],potential anti-myopia agent
CN1CCc2cccc3c2[C@H]1Cc1ccc(O)c(O)c1-3 [apomorphine],inhibition of myopia development,[16],inhibit myopia development
C[C@@H]1OC(=O)[C@H]2C[C@H]3CCCC[C@@H]3[C@@H](/C=C/[C@H]3CCC[C@H](C)N3C)[C@@H]12 [himbacine],inhibition of the development of experimental myopia,[17],inhibit the development of experimental myopia
"CCCCP(=O)(O)C1CCC(N)C1 (stereo not shown) [3-ACPBPA, (3-aminocyclopentanyl) butylphosphinic acid]",suppression of myopia development,[10],suppress myopia development
CN1CCN(CC(=O)N2c3ccccc3C(=O)Nc3cccnc32)CC1 [pirenzepine],suppression of the progression of myopia,[18]; children,40%
same,side effects,[18]; clinical trials eventually discontinued,serious side effects
same,inhibition of the development of experimental myopia,[17],inhibit the development of experimental myopia
Clc1cccc(Cl)c1N=C1NCCN1 [clonidine],inhibition of experimentally induced myopia,[13],inhibit experimentally induced myopia
CC(=C\[C@@H](C)C(=O)c1ccc(N(C)C)cc1)/C=C(\C)C(=O)NO [trichostatin A],interocular difference in refractive error between lens-treated eyes and control eyes,[11]; diet supplemented with 1 mg/kg,0.48 ± 1.46 D
same,inhibition (suppression) of myopia,[11]; 1 mg/kg in diet,more than 100%
